Assay results: US8541418B2, “Inhibitors of polo-like kinase” (Elan Pharmaceutical, Inc., priority 2009, dated 2013)

Tests used:
PLK1 [1] = molecular target: T1, PLK1 (Homo sapiens, UniProt P53350); test: PLK TR-FRET peptide assay, PLK1; format: biochemical; conditions: GST-PLK1, 60 min reaction
[2] = tested on: over 300 kinases, including CDK-1, CDK-2, CDK-5, CLK-1, CLK-2, CLK-3, CLK-4, NEK-1, NEK-2, NEK-4, NEK-6, NEK-7, MAP4K4 and STK16; test: Kinase panel screening at InVitrogen, over 300 kinases; conditions: 10 μM compound; all but 21 of the kinases, including CDK-1, CDK-2, CDK-5, CLK-1 to CLK-4, NEK-1, -2, -4, -6, -7, MAP4K4, STK16
PLK2 [3] = molecular target: T2, PLK2 (Homo sapiens, UniProt Q9NYY3); test: PLK TR-FRET peptide assay, PLK2; format: biochemical; conditions: PLK TR-FRET peptide assay, GST-PLK2, 60 min reaction; read-out: Plk2 IC50
T2 sequence (Q9NYY3 whole entry): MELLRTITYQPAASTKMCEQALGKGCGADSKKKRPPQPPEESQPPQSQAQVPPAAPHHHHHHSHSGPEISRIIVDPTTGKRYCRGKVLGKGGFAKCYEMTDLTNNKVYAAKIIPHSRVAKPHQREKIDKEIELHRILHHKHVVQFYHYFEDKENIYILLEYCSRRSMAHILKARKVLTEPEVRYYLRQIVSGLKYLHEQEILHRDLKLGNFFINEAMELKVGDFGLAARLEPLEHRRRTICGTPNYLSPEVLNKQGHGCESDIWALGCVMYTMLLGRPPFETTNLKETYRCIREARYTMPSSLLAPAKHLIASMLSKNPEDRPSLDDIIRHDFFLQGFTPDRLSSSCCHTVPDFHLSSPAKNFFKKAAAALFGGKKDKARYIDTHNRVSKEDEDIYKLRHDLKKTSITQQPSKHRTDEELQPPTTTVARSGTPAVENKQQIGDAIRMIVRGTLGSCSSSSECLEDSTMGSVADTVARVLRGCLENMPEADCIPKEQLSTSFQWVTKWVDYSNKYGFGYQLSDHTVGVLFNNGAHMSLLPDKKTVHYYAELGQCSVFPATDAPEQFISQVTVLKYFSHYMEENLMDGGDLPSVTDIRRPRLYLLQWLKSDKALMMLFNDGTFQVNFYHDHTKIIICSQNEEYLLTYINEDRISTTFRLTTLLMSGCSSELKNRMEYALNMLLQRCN

PLK2 [4] = molecular target: T2, PLK2; test: Kinase panel screening at InVitrogen, PLK2; conditions: 10 μM compound
PLK3 = PLK3 (Homo sapiens, UniProt Q9H4B4); test: PLK TR-FRET peptide assay, PLK3; format: biochemical; conditions: GST-PLK3, 15 min reaction, read-out: Plk3 IC50
Sequence of PLK3 (Q9H4B4 whole entry): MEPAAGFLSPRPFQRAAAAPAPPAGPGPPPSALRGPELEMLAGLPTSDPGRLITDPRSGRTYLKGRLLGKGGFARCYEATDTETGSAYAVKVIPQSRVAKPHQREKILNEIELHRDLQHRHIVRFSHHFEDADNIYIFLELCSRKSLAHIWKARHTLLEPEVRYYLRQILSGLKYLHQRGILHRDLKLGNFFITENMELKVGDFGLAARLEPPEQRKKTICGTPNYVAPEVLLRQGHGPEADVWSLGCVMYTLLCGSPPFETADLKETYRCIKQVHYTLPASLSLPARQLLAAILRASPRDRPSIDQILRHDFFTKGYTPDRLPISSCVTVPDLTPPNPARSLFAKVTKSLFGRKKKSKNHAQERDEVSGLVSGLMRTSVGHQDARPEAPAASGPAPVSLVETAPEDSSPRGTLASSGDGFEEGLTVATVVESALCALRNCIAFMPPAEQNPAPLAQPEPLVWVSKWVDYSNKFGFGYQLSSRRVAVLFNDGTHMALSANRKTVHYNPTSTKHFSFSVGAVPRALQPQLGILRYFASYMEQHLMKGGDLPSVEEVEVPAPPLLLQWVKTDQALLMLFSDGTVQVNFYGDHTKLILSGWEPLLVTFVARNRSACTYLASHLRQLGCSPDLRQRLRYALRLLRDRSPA

KDR = KDR (Homo sapiens, UniProt P35968); test: Kinase panel screening and titration, KDR; conditions: read-out: inhibition of KDR
Sequence of KDR (P35968 20-1356): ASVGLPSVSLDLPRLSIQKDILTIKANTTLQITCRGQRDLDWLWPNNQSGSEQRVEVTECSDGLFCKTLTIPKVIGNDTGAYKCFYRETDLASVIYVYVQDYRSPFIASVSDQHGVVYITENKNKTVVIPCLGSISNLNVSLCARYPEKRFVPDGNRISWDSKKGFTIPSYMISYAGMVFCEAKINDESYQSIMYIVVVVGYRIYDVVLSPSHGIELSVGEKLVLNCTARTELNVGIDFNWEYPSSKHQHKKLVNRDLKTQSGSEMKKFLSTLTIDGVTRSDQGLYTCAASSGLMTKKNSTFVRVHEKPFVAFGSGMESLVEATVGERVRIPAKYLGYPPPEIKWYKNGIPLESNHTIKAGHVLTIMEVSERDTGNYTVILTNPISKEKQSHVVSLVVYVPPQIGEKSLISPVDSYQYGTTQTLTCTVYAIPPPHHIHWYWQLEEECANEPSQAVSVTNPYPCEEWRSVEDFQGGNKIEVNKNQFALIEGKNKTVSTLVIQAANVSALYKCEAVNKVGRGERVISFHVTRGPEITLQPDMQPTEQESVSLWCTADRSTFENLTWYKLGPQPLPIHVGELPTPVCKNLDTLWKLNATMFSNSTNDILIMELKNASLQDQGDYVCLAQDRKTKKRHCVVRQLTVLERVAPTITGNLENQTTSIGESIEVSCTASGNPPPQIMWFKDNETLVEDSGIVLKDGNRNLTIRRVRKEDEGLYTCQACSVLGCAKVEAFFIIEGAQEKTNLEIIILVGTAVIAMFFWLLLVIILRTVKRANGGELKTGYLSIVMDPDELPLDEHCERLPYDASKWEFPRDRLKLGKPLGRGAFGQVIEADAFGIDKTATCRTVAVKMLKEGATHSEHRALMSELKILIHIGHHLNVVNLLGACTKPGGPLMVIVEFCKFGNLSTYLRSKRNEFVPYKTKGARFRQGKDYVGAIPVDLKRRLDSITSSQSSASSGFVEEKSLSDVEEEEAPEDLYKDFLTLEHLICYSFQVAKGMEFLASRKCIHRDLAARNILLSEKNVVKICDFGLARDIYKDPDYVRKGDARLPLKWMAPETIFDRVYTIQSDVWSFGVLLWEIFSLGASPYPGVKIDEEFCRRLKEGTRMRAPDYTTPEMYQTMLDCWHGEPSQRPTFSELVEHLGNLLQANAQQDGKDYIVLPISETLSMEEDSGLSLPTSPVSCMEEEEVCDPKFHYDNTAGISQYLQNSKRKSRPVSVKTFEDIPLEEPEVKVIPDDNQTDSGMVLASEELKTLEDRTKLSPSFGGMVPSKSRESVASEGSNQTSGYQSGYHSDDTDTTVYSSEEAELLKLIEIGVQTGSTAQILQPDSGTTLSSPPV

PLK1 [5] = molecular target: T1, PLK1; test: Kinase panel screening at InVitrogen, PLK1; conditions: 10 μM compound
ABL1 = ABL1 (Homo sapiens, UniProt P00519); test: Kinase panel screening and titration, ABL1; conditions: read-out: inhibition of ABL1
Sequence of ABL1 (P00519 whole entry): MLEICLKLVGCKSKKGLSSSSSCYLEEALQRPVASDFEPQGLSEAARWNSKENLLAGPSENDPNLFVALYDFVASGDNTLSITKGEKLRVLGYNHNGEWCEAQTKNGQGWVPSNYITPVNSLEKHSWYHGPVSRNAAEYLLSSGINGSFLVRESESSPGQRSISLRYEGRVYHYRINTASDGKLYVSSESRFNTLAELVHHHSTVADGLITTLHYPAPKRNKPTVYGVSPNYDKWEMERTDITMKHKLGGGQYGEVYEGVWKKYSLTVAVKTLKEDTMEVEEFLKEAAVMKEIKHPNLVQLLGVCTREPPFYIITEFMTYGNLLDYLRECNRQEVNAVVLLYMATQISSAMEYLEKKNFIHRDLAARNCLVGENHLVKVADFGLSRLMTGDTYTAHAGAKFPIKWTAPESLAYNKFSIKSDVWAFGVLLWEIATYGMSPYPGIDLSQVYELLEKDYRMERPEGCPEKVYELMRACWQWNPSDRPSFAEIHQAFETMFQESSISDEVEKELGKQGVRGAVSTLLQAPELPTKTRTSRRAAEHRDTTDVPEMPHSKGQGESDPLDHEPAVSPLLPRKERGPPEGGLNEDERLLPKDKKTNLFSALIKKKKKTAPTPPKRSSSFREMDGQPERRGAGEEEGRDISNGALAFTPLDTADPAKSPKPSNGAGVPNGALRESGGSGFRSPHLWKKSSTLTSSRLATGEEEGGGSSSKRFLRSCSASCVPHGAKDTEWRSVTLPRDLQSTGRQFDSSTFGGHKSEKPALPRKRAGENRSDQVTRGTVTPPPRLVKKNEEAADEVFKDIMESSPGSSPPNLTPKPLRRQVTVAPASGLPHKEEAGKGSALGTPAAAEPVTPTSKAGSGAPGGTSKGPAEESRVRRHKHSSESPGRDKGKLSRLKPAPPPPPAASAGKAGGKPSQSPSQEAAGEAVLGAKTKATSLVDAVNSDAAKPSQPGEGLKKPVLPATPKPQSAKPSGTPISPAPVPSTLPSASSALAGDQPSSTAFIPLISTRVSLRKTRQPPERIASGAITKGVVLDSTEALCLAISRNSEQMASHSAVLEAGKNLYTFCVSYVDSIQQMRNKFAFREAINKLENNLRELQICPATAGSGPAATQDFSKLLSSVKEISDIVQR

T1 sequence (P53350 whole entry): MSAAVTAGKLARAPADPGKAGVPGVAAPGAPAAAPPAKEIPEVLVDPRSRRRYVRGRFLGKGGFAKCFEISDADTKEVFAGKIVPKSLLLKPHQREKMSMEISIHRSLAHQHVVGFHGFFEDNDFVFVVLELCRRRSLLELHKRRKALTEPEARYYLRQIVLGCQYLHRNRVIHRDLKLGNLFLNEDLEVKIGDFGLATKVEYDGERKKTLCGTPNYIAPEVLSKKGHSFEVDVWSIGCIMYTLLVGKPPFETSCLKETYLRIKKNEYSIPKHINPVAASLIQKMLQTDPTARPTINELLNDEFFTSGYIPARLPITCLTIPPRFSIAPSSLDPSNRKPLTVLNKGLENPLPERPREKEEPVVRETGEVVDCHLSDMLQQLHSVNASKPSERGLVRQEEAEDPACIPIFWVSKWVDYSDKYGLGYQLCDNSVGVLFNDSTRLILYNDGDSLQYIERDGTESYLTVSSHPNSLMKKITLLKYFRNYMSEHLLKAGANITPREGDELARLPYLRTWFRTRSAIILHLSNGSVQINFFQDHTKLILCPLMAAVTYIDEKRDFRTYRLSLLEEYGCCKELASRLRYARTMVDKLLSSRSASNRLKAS

- IC50 (PLK1 [1]): < 1000 nM
- inhibition of kinases in panel of over 300 [2]: below 40%
- IC50 (PLK2 [3]): < 1000 nM
- activity against PLK2 in kinase panel (PLK2 [4]): potent
- IC50 (PLK3): 1000 to 10000 nM
- inhibition at 10 µM (KDR): > 80%
- activity against PLK1 in kinase panel (PLK1 [5]): potent
- inhibition at 10 µM (ABL1): > 80%
Compound: CC[C@@H]1C(=O)N(C)c2cnc(-n3ccnc3-c3cccc(F)c3)nc2N1C1CCOC1 (stereo partly drawn) [Example 192, (7R)-7-ethyl-2-(2-(3-fluorophenyl)-1H-imidazol-1-yl)-5-methyl-8-(tetrahydrofuran-3-yl)-7,8-dihydropteridin-6(5H)-one]
